According to patent US11897862B2 (Gilead Sciences, Inc., priority 2022, dated 2024):

Assays:
IKZF1 = target: T1, IKZF1 (Homo sapiens, UniProt Q13422+Q96SW2); test: HEK293 HiBiT in vitro degradation of IKZF1; format: cell-based; conditions: for DC50 / IKZF1 Dmax: HEK293 HiBiT; for DC50: 18-24 hr incubation, normalized to DMSO control, read-out: IKZF1 EC50; for Dmax: HEK293, HEK293 HiBiT; for Dmax / IKZF1 Dmax: maximum degradation at the highest concentration tested
T1 construct: expressed in transfected cells
Method: (§1) In vitro degradation of IKZF1, IKZF2, and SALL4 was measured using HiBiT protein tagging and detection technology (Promega).
(§2) HiBit technology was used to develop the quantitative assays to measure the cellular IKZFs level by tagging an 11 amino acid HiBit peptides […] to the protein of interest. Reporter plasmids were generated by fusing a linker sequence ([…]) followed by the HiBit tag at the C-terminus of IKZF1, IKZF2, and SALL4. The fusion fragments were subsequently cloned into pcDNA5 pcDNA™5/FRT/TO plasmids (Thermo Fisher, cat #V652020) downstream of the tetracycline operator. The resulting plasmids were co-transfected with pOG44 Flp-Recombinase Expression Vector (Thermo Fisher, cat #V600520) into Flp-In™ T-REx HEK293 line (Thermo Fisher, cat #R78077) and a stable cell pool was selected by adding 100 µg/ml of Hygromycin (Thermo Fisher, cat #10687010). The reporter cell enabled Tet-On inducible reporter expression from a single copy of the integrated gene.
(§3) On Day 1, Cells were grown to ˜80% confluency in tissue culture medium (DMEM Glutamax (Gibco10569), 10% Tet free FBS (Takara 631106), and PenStrep Glutamin (Gibco 10378)) in tissue culture flasks. Doxycycline was then added to a final concentration of […] to induce reporter expression at 37° C. overnight.
(§4) On Day 2, 125 nL of serially-diluted solution of testing compounds were dispensed into 384-well white solid assay plates via ECHO acoustic liquid handler. Cells were lifted by 0.25% Trypsin (Gibco 25200) then pelleted by centrifugation (Beckman Avanti J-E) at 500×g for 5 min. Cell pellets were resuspended in TC medium at the concentration of 3e5/mL and 25 μL of cell suspension were added into each well of compound-spotted plates. The plates were returned to a 37° C. incubator overnight (18-24 hr).
(§5) On Day 3, assay plates were removed from the tissue culture incubator and 25 μL of Nano-Glo lytic detection system (Promega, cat #N3030) was added to each well. Plates were incubated at r.t. for 3 min with shaking, and luminescence was read using an Envision reader (Perkin Elmer).
(§6) To assess the IKZF1, IKZF2, and SALL4 degrader potential of exemplified compounds of this disclosure and certain Reference Compounds EC50 and Dmax values were determined for the compounds of Examples 1 to 383 and Reference Compounds A-1, B-1, B-2, B-3, B-4, and C-1 in the HiBiT assays. Asterisks (*) indicate examples for which the data shown represents an average of n≥3.

IKZF2 = IKZF2 (Homo sapiens, UniProt Q96SW2+Q9UKS7); test: HEK293 HiBiT in vitro degradation of IKZF2; format: cell-based; design: expressed in transfected cells; conditions: for Dmax: HEK293, HEK293 HiBiT; for Dmax / IKZF2 Dmax: maximum degradation at the highest concentration tested; for DC50 / IKZF2 Dmax: HEK293 HiBiT; for DC50: 18-24 hr incubation, normalized to DMSO control, read-out: IKZF2 EC50
Method: as §1, §2, §3, §4, §5, §6

T1 sequence (Q13422 whole entry): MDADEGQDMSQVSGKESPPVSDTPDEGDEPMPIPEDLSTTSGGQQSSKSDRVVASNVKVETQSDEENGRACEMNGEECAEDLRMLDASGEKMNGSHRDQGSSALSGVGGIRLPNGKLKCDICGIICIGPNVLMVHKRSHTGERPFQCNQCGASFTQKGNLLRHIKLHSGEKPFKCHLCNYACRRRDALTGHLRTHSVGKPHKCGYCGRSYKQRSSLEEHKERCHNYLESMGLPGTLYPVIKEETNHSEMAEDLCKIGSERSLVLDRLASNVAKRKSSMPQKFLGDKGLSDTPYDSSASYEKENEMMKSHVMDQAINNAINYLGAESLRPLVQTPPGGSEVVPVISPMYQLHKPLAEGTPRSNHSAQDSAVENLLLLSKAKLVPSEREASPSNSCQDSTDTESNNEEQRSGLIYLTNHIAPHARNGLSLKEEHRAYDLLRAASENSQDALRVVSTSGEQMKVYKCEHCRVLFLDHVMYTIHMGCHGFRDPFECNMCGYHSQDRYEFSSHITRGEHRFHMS
T1 sequence (Q96SW2 whole entry): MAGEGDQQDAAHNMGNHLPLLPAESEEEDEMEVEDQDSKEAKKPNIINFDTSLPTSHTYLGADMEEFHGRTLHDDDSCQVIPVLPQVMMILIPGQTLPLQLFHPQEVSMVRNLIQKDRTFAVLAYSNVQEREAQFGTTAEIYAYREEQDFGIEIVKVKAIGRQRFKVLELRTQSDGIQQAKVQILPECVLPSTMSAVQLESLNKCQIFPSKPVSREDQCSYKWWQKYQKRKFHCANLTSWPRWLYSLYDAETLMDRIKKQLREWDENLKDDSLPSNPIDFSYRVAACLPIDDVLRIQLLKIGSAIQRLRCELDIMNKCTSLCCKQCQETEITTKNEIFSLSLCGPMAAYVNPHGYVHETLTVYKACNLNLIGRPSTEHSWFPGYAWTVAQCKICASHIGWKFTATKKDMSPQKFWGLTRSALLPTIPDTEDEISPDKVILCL
T1 sequence (Q16531 whole entry partner): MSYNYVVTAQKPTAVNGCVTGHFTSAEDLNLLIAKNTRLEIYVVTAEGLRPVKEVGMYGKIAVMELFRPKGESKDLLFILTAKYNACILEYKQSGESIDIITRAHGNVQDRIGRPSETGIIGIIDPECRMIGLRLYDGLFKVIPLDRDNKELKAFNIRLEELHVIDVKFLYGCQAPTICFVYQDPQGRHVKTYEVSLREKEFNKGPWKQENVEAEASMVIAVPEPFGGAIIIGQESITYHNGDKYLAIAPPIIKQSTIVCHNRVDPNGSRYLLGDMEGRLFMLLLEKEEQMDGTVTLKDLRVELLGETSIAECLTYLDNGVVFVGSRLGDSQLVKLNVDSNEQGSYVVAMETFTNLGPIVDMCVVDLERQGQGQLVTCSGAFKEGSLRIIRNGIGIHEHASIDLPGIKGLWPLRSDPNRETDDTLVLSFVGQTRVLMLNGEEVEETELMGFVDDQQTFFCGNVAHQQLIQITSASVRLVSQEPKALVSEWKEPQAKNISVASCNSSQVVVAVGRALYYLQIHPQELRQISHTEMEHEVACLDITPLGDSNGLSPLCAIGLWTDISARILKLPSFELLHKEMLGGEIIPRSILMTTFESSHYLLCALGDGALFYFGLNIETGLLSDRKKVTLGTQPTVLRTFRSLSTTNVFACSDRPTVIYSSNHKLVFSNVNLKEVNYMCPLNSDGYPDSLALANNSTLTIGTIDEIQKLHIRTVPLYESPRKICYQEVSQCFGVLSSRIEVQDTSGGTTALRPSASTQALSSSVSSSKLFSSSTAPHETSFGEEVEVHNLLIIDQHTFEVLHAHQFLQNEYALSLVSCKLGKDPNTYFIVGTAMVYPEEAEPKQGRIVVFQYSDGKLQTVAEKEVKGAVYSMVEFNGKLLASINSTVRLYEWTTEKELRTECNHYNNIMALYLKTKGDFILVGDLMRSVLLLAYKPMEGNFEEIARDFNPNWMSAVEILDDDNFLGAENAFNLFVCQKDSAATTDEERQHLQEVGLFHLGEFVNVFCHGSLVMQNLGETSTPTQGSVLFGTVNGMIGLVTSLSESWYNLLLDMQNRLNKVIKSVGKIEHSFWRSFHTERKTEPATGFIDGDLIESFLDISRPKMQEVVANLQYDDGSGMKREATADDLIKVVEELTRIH
IKZF2, sequence (Q9UKS7 1-500 isoform Q9UKS7-2): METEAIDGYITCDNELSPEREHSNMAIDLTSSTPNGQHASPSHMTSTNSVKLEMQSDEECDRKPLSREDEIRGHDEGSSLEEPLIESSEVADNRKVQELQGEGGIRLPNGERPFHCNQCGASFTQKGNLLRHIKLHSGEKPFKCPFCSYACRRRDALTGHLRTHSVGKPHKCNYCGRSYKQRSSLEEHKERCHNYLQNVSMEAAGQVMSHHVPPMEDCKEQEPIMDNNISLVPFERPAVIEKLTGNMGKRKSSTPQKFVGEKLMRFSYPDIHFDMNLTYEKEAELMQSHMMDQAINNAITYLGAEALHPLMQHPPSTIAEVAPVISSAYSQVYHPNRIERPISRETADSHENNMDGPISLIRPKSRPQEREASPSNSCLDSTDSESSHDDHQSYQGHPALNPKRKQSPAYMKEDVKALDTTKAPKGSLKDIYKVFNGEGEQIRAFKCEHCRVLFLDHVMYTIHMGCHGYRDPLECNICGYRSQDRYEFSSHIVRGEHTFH
IKZF2, sequence (Q96SW2 whole entry): as the sequence (Q96SW2 whole entry) above
IKZF2, sequence (Q16531 whole entry partner): as the sequence (Q16531 whole entry partner) above

| SMILES | DC50 (IKZF1) | Dmax (IKZF2) | DC50 (IKZF2) | Dmax (IKZF1) | IKZF2 Dmax (IKZF2) | IKZF1 Dmax (IKZF1) |
| --- | --- | --- | --- | --- | --- | --- |
| O=C1CC[C@H](N2Cc3c(ccc(C[C@H]4OCCC[C@@H]4NC4CCCCC4)c3F)C2=O)C(=O)N1 (single isomer, unassigned) [Example 338] | > 1 µM | 92% | 0.006 µM |  |  |  |
| O=C1CC[C@@H](N2Cc3c(ccc(C[C@H]4OCCC[C@@H]4NC4CCCCC4)c3F)C2=O)C(=O)N1 (single isomer, unassigned) [Example 339] | > 1 µM | 93% | 0.011 µM |  |  |  |
| O=C1CCC(N2Cc3cc(C[C@H]4OCCC[C@@H]4NC4CCC(C(F)(F)F)CC4)ccc3C2=O)C(=O)N1 (single isomer, unassigned) [Example 356] | > 1 µM | 76% | 0.049 µM |  |  |  |
| O=C1CCC(N2Cc3cc(C[C@H]4OCCC[C@@H]4NC4CCC(C(F)(F)F)CC4)ccc3C2=O)C(=O)N1 (single isomer, unassigned) [Example 357] | 0.465 µM |  | 0.023 µM | 40% | 89% |  |
| O=C1CCC(N2Cc3c(ccc(C[C@H]4OCCC[C@@H]4NC4CCc5cn[nH]c5C4)c3F)C2=O)C(=O)N1 (single isomer, unassigned) [Example 360] | > 1 µM | 90% | 0.139 µM |  |  |  |
| O=C1CCC(N2Cc3c(ccc(C[C@H]4OCCC[C@@H]4NC4CCc5cn[nH]c5C4)c3F)C2=O)C(=O)N1 (single isomer, unassigned) [Example 361] | > 1 µM |  | 0.034 µM |  | 102% |  |
| O=C1CCC(N2Cc3c(ccc(C[C@H]4OCCC[C@@H]4NC4CCC5(CC4)CC5(F)F)c3F)C2=O)C(=O)N1 (single isomer, unassigned) [Example 365] | 0.122 µM |  | 0.003 µM |  | 95% | 43% |
| O=C1CC[C@@H](N2Cc3c(ccc(C[C@H]4OCCC[C@@H]4N[C@H]4CC[C@@H](F)CC4)c3F)C2=O)C(=O)N1 (single isomer, unassigned) [Example 372] | > 1 µM | 94% | 0.005 µM |  |  |  |
| O=C1CCC(N2Cc3cc(C[C@H]4CCCC[C@@H]4NCc4ccccc4Cl)ccc3C2=O)C(=O)N1 (stereo partly drawn) [Example 3, 3-(5-(((1R,2S)-2-((2-chlorobenzyl)amino)cyclohexyl)methyl)-1-oxoisoindolin-2-yl)piperidine-2,6-dione] | 0.034 µM | 94% | 0.019 µM | 38% |  |  |
| O=C1CCC(N2Cc3cc(C[C@H]4CCCC[C@@H]4NCc4ccccc4)c(F)cc3C2=O)C(=O)N1 (stereo partly drawn) [Example 4, 3-(5-(((1R,2S)-2-(benzylamino)cyclohexyl)methyl)-6-fluoro-1-oxoisoindolin-2-yl)piperidine-2,6-dione] | 0.13 µM | 92% | 0.058 µM | 26% |  |  |
| O=C1CCC(N2Cc3c(ccc(C[C@H]4CCCC[C@@H]4N(Cc4ccccc4)Cc4ccccc4)c3F)C2=O)C(=O)N1 (stereo partly drawn) [Example 5, 3-(5-(((1R,2S)-2-(dibenzylamino)cyclohexyl)methyl)-4-fluoro-1-oxoisoindolin-2-yl)piperidine-2,6-dione] | > 1 µM | 92% | 0.353 µM |  |  |  |
| O=C1CCC(N2Cc3cc(C[C@H]4CCCC[C@@H]4NCc4ccc5ccccc5c4)ccc3C2=O)C(=O)N1 (stereo partly drawn) [Example 9, 3-(5-(((1R,2S)-2-((naphthalen-2-ylmethyl)amino)cyclohexyl)methyl)-1-oxoisoindolin-2-yl)piperidine-2,6-dione] | > 1 µM | 92% | 0.019 µM |  |  |  |
| O=C1CCC(N2Cc3c(ccc(C[C@H]4CCCC[C@@H]4NCc4ccccc4)c3F)C2=O)C(=O)N1 (stereo partly drawn) [Example 11, 3-(5-(((1R,2S)-2-(benzylamino)cyclohexyl)methyl)-4-fluoro-1-oxoisoindolin-2-yl)piperidine-2,6-dione] | > 1 µM | 98% | 0.007 µM |  |  |  |
| CS(=O)(=O)c1ccc(CN[C@H]2CCCC[C@@H]2Cc2ccc3c(c2)CN(C2CCC(=O)NC2=O)C3=O)cc1 (stereo partly drawn) [Example 12, 3-(5-(((1R,2S)-2-((4-(methylsulfonyl)benzyl)amino)cyclohexyl)methyl)-1-oxoisoindolin-2-yl)piperidine-2,6-dione] | > 1 µM | 85% | 0.106 µM |  |  |  |
| O=C1CCC(N2Cc3cc(C[C@H]4CCCC[C@@H]4NCc4cc(Cl)cc(Cl)c4)ccc3C2=O)C(=O)N1 (stereo partly drawn) [Example 13, 3-(5-(((1R,2S)-2-((3,5-dichlorobenzyl)amino)cyclohexyl)methyl)-1-oxoisoindolin-2-yl)piperidine-2,6-dione] | > 1 µM | 68% | 0.079 µM |  |  |  |

Now from value to compound:

| DC50 (IKZF1) | Dmax (IKZF2) | DC50 (IKZF2) | Dmax (IKZF1) | IKZF2 Dmax (IKZF2) | IKZF1 Dmax (IKZF1) | SMILES |
| --- | --- | --- | --- | --- | --- | --- |
| > 1 µM | 97% | 0.003 µM |  |  |  | O=C1CC[C@H](N2Cc3cc(C[C@H]4CCCC[C@@H]4NC4CCCCC4)ccc3C2=O)C(=O)N1 (single isomer, unassigned) [Example 336] |
| > 1 µM | 95% | 0.005 µM |  |  |  | O=C1CC[C@@H](N2Cc3cc(C[C@H]4CCCC[C@@H]4NC4CCCCC4)ccc3C2=O)C(=O)N1 (single isomer, unassigned) [Example 337] |
| 0.231 µM | 100% | 0.018 µM | 34% |  |  | O=C1CCC(N2Cc3cc(C[C@H]4CCCC[C@@H]4NC4CCc5cn[nH]c5C4)ccc3C2=O)C(=O)N1 (single isomer, unassigned) [Example 358] |
| 0.249 µM |  | 0.009 µM |  | 101% | 43% | O=C1CCC(N2Cc3cc(C[C@H]4CCCC[C@@H]4NC4CCc5cn[nH]c5C4)ccc3C2=O)C(=O)N1 (single isomer, unassigned) [Example 359] |
| 0.117 µM | 95% | 0.01 µM | 53% |  |  | CC(N[C@H]1CCCC[C@@H]1Cc1ccc2c(c1)CN(C1CCC(=O)NC1=O)C2=O)C1CCS(=O)(=O)CC1 (single isomer, unassigned) [Example 370] |
| 0.461 µM |  | 0.062 µM |  | 94% | 50% | CC(N[C@H]1CCCC[C@@H]1Cc1ccc2c(c1)CN(C1CCC(=O)NC1=O)C2=O)C1CCS(=O)(=O)CC1 (single isomer, unassigned) [Example 371] |
| > 1 µM |  | 0.629 µM |  | 48% |  | O=C1CCC(N2Cc3cc(C[C@H]4CC(CO)CC[C@@H]4NC4CCCCC4)ccc3C2=O)C(=O)N1 (single isomer, unassigned) [Example 382] |
| > 1 µM |  | 0.226 µM |  | 77% |  | O=C1CCC(N2Cc3cc(C[C@H]4CC(CO)CC[C@@H]4NC4CCCCC4)ccc3C2=O)C(=O)N1 (single isomer, unassigned) [Example 383] |
| 0.933 µM | 82% | 0.225 µM | 30% |  |  | N[C@H]1CCCC[C@@H]1Cc1ccc2c(c1)CN(C1CCC(=O)NC1=O)C2=O (stereo partly drawn) [Example 1, 3-(5-(((1R,2S)-2-aminocyclohexyl)methyl)-1-oxoisoindolin-2-yl)piperidine-2,6-dione] |
| 0.122 µM | 90% | 0.03 µM | 32% |  |  | O=C1CCC(N2Cc3cc(C[C@H]4CCCC[C@@H]4NCc4cncs4)ccc3C2=O)C(=O)N1 (stereo partly drawn) [Example 6, 3-(1-oxo-5-(((1R,2S)-2-((thiazol-5-ylmethyl)amino)cyclohexyl)methyl)isoindolin-2-yl)piperidine-2,6-dione] |
| 0.229 µM | 94% | 0.047 µM | 34% |  |  | O=C1CCC(N2Cc3cc(C[C@H]4CCCC[C@@H]4NCC4CC4)ccc3C2=O)C(=O)N1 (stereo partly drawn) [Example 8, 3-(5-(((1R,2S)-2-((cyclopropylmethyl)amino)cyclohexyl)methyl)-1-oxoisoindolin-2-yl)piperidine-2,6-dione] |
| 0.388 µM | 96% | 0.013 µM | 46% |  |  | O=C1CCC(N2Cc3cc(C[C@H]4CCCC[C@@H]4NCC4CCC(F)(F)CC4)ccc3C2=O)C(=O)N1 (stereo partly drawn) [Example 10, 3-(5-(((1R,2S)-2-(((4,4-difluorocyclohexyl)methyl)amino)cyclohexyl)methyl)-1-oxoisoindolin-2-yl)piperidine-2,6-dione] |
